Measurements taken from publication PMC9095466 (Nature, 2022).
“And” between values parts separate entries of the source, which are not always exact repeats. Equal entries are not always repeated. Where two headings read alike, the source gives them in different places.

What was measured:
Recombinant human DESC1 = biological target: T1, Recombinant human DESC1 (Homo sapiens, UniProt Q9UL52); assay: Protease selectivity, Ki on recombinant protease; assay type: biochemical; details: single experiments N1-N3; Figure 1D; read-out: Individual Ki, Desc1
T1 construct: made in house
T1 sequence (Q9UL52 1-423): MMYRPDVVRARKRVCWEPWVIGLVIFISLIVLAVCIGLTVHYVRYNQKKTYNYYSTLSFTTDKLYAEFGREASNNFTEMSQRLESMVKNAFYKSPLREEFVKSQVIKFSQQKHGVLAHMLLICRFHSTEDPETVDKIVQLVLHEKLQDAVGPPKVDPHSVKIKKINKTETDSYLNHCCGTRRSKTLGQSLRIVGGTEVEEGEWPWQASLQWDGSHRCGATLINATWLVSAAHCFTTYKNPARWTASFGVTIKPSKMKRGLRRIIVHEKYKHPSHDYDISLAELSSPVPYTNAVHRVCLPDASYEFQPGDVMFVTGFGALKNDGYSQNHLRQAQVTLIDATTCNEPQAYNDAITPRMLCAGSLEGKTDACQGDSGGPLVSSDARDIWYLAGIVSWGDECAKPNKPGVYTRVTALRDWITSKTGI

human cathepsin L = biological target: T2, human cathepsin L (Homo sapiens, UniProt P07711); assay: Protease selectivity, Ki on protease; assay type: biochemical; details: single experiments N1-N4; Figure 1D; read-out: Individual Ki, Cathepsin L
T2 construct: purchased Bio-Techne

[1] = Cytotoxicity CC50 in Calu-3 lung epithelial cells; assay type: cell-based, human; details: human, Calu-3 cells; for viability at 24 h, 3000 µM: Log [inhibitor] -2.52; for viability at 24 h, 300 µM: Log [inhibitor] -3.52; for viability at 24 h, 100 µM: Log [inhibitor] -4.00; for viability at 24 h, 30 µM: Log [inhibitor] -4.52; for viability at 24 h, 10 µM: Log [inhibitor] -5.00; for viability at 24 h, 3 µM: Log [inhibitor] -5.52; for viability at 24 h, 0.3 µM: Log [inhibitor] -6.52; for viability at 24 h, 0.03 µM: Log [inhibitor] -7.52; for viability at 24 h, 0.003 µM: Log [inhibitor] -8.52
Calu-3 cells = assay: Cytotoxicity CC50 in Calu-3 lung epithelial cells; assay type: cell-based, human; details: single replicates
human thrombin = biological target: T3, human thrombin (Homo sapiens, UniProt P00734); assay: Protease selectivity, Ki on protease; assay type: biochemical; details: single experiments N1-N3; Figure 1D; read-out: Individual Ki, Thrombin
T3 construct: purchased MilliporeSigma

[2] = biological target: T4, Recombinant human matriptase (Homo sapiens, UniProt Q9Y5Y6); assay: Protease selectivity, Ki on recombinant protease; assay type: biochemical; details: single experiments N1-N3; Figure 1D; read-out: Individual Ki, Matriptase
T4 construct: made in house
T4 sequence (Q9Y5Y6 1-855): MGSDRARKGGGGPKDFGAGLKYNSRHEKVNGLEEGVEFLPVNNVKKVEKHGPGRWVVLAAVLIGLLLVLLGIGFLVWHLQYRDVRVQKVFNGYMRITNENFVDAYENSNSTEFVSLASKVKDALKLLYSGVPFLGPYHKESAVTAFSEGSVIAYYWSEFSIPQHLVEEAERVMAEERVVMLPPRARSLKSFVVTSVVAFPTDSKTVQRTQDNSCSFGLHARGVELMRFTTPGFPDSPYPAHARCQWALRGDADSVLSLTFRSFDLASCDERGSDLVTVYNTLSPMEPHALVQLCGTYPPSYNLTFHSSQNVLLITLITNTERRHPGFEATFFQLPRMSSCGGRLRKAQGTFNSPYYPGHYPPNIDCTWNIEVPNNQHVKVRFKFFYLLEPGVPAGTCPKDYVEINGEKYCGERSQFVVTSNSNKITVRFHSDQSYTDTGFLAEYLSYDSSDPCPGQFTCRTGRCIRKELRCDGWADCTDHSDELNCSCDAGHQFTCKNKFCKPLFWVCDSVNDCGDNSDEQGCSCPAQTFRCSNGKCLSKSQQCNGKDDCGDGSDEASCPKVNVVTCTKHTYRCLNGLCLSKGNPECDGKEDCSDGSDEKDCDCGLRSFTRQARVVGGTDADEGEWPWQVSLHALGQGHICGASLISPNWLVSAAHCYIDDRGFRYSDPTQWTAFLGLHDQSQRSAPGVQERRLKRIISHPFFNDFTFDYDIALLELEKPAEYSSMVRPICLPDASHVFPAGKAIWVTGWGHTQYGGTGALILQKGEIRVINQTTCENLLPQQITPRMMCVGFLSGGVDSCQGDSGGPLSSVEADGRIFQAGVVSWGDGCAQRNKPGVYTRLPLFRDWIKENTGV

Recombinant human furin = biological target: T5, Recombinant human furin (Homo sapiens, UniProt P09958); assay: Protease selectivity, Ki on recombinant protease; assay type: biochemical; details: single experiments N1-N3; Figure 1D; read-out: Individual Ki, Furin
T5 construct: purchased Bio-Techne

Recombinant human hepsin = biological target: T6, Recombinant human hepsin (Homo sapiens, UniProt P05981); assay: Protease selectivity, Ki on recombinant protease; assay type: biochemical; details: single experiments N1-N3; Figure 1D; read-out: Individual Ki, Hepsin
T6 construct: made in house

[3] = tested on: SARS-CoV-2 lineage B strain (VIDO); assay: microbe, parasite or virus in culture; assay type: cell-based
human TMPRSS2 = human TMPRSS2 (Homo sapiens, UniProt O15393); assay: cell-based; details: for TMPRSS2 activity (%): Figure 1B, single experiments N1-N3; for inhibition at 0.01 µM: Vero C1008, 10 nM compound, 24 h, vs untreated/vehicle TMPRSS2-expressing Vero E6 cells, read-out: inhibition of TMPRSS2 activity (reduction of substrate proteolysis)
[4] = read-out: % of Viability, Average (n=2)
[5] = single replicates, read-out: % of Viability

T5 sequence (P09958 108-794): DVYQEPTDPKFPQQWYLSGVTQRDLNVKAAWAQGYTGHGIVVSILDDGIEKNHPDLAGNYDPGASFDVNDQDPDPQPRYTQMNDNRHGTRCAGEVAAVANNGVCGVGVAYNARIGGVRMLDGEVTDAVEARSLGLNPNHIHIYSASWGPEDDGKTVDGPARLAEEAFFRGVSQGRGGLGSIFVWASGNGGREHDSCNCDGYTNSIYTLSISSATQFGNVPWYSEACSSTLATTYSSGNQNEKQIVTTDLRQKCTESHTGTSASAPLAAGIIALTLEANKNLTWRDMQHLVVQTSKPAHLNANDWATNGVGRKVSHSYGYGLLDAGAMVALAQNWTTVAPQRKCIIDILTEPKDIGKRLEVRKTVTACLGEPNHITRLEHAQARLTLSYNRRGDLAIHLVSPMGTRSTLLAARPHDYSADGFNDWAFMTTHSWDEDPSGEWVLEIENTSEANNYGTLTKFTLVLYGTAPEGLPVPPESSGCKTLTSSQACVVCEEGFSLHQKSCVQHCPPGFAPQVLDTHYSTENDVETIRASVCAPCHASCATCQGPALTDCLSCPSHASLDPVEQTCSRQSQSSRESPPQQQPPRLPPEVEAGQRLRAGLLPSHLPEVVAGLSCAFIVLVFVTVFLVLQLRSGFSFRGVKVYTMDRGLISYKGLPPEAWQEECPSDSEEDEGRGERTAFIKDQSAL
T6 sequence (P05981 whole entry): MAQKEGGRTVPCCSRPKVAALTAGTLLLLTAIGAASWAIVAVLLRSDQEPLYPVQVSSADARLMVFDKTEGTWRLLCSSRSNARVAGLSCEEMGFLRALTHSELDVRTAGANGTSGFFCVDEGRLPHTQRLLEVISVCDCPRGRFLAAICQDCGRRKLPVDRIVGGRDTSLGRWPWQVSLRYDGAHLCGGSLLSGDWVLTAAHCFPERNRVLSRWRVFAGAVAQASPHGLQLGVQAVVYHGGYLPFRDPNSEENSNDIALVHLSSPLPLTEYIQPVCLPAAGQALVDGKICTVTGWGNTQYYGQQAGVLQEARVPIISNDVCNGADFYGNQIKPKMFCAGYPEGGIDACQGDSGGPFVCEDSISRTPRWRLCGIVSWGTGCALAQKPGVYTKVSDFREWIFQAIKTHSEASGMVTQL
T2 sequence (P07711 114-333): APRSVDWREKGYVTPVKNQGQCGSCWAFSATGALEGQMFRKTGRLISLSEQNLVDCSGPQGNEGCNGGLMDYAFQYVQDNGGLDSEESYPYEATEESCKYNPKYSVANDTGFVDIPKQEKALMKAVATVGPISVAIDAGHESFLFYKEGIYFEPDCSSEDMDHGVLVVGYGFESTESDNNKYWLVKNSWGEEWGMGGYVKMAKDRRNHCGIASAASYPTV
human TMPRSS2, sequence (O15393 whole entry): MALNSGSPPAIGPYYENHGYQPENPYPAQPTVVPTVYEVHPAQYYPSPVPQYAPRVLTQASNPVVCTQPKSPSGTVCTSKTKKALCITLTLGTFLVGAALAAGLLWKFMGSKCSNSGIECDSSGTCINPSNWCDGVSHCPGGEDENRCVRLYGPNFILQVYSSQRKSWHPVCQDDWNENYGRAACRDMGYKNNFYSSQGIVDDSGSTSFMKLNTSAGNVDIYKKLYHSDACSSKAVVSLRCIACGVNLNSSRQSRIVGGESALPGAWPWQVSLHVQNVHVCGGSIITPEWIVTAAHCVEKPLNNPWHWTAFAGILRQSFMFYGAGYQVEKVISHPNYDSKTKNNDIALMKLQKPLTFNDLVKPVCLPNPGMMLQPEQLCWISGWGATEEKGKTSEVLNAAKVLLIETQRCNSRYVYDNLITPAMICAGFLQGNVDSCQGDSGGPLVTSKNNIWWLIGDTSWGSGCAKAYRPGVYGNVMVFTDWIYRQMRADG

For `CC(=O)N[C@@H](CCC(N)=O)C(=O)N[C@@H](Cc1ccccc1)C(=O)N[C@@H](CCCNC(=N)N)C(=O)c1nc2ccccc2s1` [Compound N-00386], the Ki (Recombinant human DESC1) was 0.0111 µM and 0.00728 µM and 0.00899 µM and the Ki (human cathepsin L) was 7.72 µM and 7.58 µM and 7.87 µM.
With `CC(=O)N[C@@H](CCC(N)=O)C(=O)N[C@@H](Cc1ccccc1)C(=O)N[C@@H](CCCNC(=N)N)C(=O)c1nc2ccccc2s1` [Compound N-386] the viability at 24 h, 3000 µM [1, 4] was 46%, the viability at 24 h, 3000 µM [1, 5] was 44% and the viability at 24 h, 300 µM [1, 4] was 82.5%. For the same molecule, the viability at 24 h, 300 µM [1, 5] was 79%, the viability at 24 h, 100 µM [1, 4] was 87% and the viability at 24 h, 100 µM [1, 5] was 86%. It also gave a viability at 24 h, 30 µM [1, 4] of 87.5%, a viability at 24 h, 30 µM [1, 5] of 85% and a viability at 24 h, 10 µM [1, 4] of 87%. For the same molecule, the viability at 24 h, 10 µM [1, 5] was 86%, the viability at 24 h, 3 µM [1, 4] was 95% and the viability at 24 h, 3 µM [1, 5] was 95%. For the same molecule, the viability at 24 h, 0.3 µM [1, 4] was 100%, the viability at 24 h, 0.3 µM [1, 5] was 98% and the viability at 24 h, 0.03 µM [1, 4] was 104%. It also gave a viability at 24 h, 0.03 µM [1, 5] of 101%, a viability at 24 h, 0.003 µM [1, 4] of 102% and a viability at 24 h, 0.003 µM [1, 5] of 102%. The CC50 at 24 h ([1]; unit not given for CC50, read-out: CC50) was 1880 µM, the “% of Viability” value (Calu-3 cells; Log [inhibitor] -2.52) was 48% and the “% of Viability” value (Calu-3 cells; Log [inhibitor] -4.00) was 88%. For the same molecule, the “% of Viability” value (Calu-3 cells; Log [inhibitor] -4.52) was 90%, the “% of Viability” value (Calu-3 cells; Log [inhibitor] -5.00) was 88% and the “% of Viability” value (Calu-3 cells; Log [inhibitor] -7.52) was 106%.
For `N=C(N)NCCCCC(=O)N[C@@H](CCC(=O)O)C(=O)N[C@@H](Cc1ccccc1)C(=O)N[C@@H](CCCNC(=N)N)C(=O)c1nc2ccccc2s1` [Compound N-00438], the Ki (human thrombin) was > 10 µM, the Ki [2] was 0.00121 µM and 0.00102 µM and 0.00109 µM and the Ki (Recombinant human DESC1) was 0.0343 µM and 0.0276 µM and 0.0298 µM. The Ki (Recombinant human furin) was > 10 µM, the Ki (Recombinant human hepsin) was 0.000477 µM and 0.000603 µM and 0.000489 µM and the Ki (human cathepsin L) was > 10 µM.
In the case of `CC(=O)NC(CCC(N)=O)C(=O)NC(CC1CCCCC1)C(=O)NC(CCCNC(=N)N)C(=O)c1nc2ccccc2s1` (stereo not shown) [Compound N-0676], the inhibition at 0.1 µM ([3]; Severe acute respiratory syndrome coronavirus 2, Calu-3, read-out: inhibition of SARS-CoV-2 infection) is reported as < 53%, the “TMPRSS2 activity (%)” value (human TMPRSS2) is reported as 95.6684% and 87.7074% and 100.707% and the inhibition at 0.01 µM (human TMPRSS2) is reported as 8%.
For `N=C(N)NCCCC(NC(=O)C(Cc1ccccc1)NC(=O)C(CCC(N)=O)NC(=N)N)C(=O)c1nc2ccccc2s1` (stereo not shown) [Compound N-1296], the Nucleocapsid ([3]; Figure 2a; two replicates; DMSO control about 91-94) was 31.7311 and 81.7299, the dsRNA ([3]; Figure 2a; two replicates; DMSO control about 93-95) was 37.1641 and 78.8536 and the inhibition at 0.1 µM ([3]; Severe acute respiratory syndrome coronavirus 2, Calu-3; read-out: inhibition of SARS-CoV-2 infection) was < 44%. For the same molecule, the “TMPRSS2 activity (%)” value (human TMPRSS2) was 93.2686% and 83.3862% and 77.4595% and the inhibition at 0.01 µM (human TMPRSS2) was 16%.
